# According to patent US20260317299A1, “PIKFYVE PROTEIN KINASE DEGRADATION AGENT AND USE THEREOF” (Shanghai Institute of Organic Chemistry, Chinese Academy of …, priority 2023, published 2026):
# Molecular target: T1, PIKfyve (Homo sapiens, UniProt Q9Y2I7)
# T1 construct: endogenous in cells; host or cells: VCaP
# Assay: Degradation of PIKfyve proteins in VCaP tumor cells (24 h, Western blot)
# Format: cell-based
# Details: 37° C., compared with DMSO control, WB, read-out: DC50 (concentration that achieves 50% degradation activity)
# Protocol: Method: 200 μL of cells at a density of 5×10^6 cells/ml were inoculated into a 6-well plate, and then different concentrations of drugs were added. The cells were treated at 37° C. for 24 h. The […] was collected and washed with PBS twice. Then, 100-200 μL of 1×SDS lysate was added, and the cell lysate was collected into a centrifuge tube. The cells were disrupted ultrasonically for 10-20 sec, and boiled for 10 min. Protein samples were subjected to SDS-PAGE electrophoresis at a voltage of 90 V, transferred to PVDF membranes at 110 V, blocked with 5% BSA for 4 h, incubated with primary antibodies (PIKfyve, GAPDH) at 4° C. overnight, and incubated with secondary antibodies (anti-Rabbit IgG or anti-Mouse IgG) at room temperature. The membranes were washed with TBST buffer, developed with an ECL developing solution, and then imaged to obtain protein band signals, with single-concentration WB results as shown in FIG. 1. Compared with the DMSO control group, the concentration that achieves 50% degradation activity is defined as DC50.
# T1 sequence (Q9Y2I7 whole entry): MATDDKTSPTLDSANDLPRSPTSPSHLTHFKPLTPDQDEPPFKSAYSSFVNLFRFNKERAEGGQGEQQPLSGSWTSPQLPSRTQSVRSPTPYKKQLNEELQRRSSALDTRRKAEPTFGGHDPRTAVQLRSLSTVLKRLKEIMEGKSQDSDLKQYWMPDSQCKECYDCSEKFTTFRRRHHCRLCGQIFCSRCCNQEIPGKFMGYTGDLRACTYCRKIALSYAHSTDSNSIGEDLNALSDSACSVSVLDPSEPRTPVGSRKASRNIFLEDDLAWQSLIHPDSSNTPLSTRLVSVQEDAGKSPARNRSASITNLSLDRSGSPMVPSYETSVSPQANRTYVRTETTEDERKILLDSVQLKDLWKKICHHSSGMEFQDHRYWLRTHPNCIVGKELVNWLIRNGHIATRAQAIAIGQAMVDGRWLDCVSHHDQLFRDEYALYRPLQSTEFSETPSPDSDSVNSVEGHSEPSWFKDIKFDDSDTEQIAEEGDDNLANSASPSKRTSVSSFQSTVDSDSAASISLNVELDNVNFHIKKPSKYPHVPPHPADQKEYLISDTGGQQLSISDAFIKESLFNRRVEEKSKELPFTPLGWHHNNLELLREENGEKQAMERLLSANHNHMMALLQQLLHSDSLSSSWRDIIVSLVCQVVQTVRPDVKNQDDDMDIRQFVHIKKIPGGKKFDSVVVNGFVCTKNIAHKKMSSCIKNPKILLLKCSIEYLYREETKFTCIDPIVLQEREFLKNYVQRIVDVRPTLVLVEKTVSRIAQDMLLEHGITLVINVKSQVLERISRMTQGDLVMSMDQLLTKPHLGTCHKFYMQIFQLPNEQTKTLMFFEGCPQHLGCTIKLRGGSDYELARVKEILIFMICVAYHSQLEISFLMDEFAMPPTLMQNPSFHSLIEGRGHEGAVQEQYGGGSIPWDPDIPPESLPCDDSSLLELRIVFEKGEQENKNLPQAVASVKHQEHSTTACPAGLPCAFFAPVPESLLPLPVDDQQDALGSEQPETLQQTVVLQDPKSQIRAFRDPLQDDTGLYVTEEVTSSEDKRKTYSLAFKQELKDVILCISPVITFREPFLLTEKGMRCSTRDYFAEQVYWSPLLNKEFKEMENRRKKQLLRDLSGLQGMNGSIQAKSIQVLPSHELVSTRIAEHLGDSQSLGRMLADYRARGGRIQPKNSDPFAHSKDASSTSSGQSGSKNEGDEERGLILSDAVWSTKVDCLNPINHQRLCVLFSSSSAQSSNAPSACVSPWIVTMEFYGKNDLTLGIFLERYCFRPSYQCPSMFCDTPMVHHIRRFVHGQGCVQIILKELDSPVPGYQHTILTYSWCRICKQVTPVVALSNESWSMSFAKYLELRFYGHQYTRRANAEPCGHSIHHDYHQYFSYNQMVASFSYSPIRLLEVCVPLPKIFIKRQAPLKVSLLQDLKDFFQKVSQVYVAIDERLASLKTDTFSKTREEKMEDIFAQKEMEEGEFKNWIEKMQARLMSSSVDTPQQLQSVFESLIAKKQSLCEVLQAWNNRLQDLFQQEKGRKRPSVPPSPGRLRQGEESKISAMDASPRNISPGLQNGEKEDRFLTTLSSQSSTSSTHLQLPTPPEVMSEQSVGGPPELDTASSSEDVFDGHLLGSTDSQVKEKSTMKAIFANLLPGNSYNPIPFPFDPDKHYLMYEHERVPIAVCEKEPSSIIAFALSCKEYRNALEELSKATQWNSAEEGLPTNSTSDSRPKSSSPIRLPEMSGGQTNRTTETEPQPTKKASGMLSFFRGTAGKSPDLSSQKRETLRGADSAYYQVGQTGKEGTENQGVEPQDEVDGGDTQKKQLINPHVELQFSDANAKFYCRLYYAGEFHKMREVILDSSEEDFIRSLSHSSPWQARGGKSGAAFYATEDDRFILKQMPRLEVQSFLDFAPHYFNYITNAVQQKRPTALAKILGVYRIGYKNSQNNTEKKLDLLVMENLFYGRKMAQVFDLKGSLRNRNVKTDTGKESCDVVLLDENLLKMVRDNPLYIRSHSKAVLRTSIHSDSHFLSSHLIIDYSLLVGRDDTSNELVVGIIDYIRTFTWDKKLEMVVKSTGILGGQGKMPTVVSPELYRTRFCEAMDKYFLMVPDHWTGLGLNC
row,SMILES,DC50 [nM]
1,"Cc1cccc(/C=N/Nc2cc(N3CCOCC3)nc(OCCc3ccc(NC(=O)COc4cccc5c4C(=O)N(C4CCC(=O)NC4=O)C5=O)cc3)n2)c1 (centres unmarked) [Example 1, (E)-2-((2-(2,6-dioxopiperidin-3-yl)-1,3-dioxoisoindolin-4-yl)oxy)-N-(4-(2-((4-(2-(3-methylbenzylidene)hydrazino)-6-morpholinopyrimidin-2-yl)oxy)ethyl)phenyl)acetamide]",100 to 10000
2,"Cc1cccc(/C=N/Nc2cc(N3CCOCC3)nc(OCCc3ccc(NC(=O)CCCCCOc4ccc5c(c4)C(=O)N(C4CCC(=O)NC4=O)C5=O)cc3)n2)c1 (centres unmarked) [Example 8, (E)-6-((2-(2,6-dioxopiperidin-3-yl)-1,3-dioxoisoindolin-5-yl)oxy)-N-(4-(2-((4-(2-(3-methylbenzylidene)hydrazino)-6-morpholinopyrimidin-2-yl)oxy)ethyl)phenyl)hexanamide]",100 to 10000
3,"Cc1cccc(/C=N/Nc2cc(N3CCOCC3)nc(OCCc3ccc(NC(=O)CCCCCNc4cccc5c4C(=O)N(C4CCC(=O)NC4=O)C5=O)cc3)n2)c1 (centres unmarked) [Example 13, (E)-6-((2-(2,6-dioxopiperidin-3-yl)-1,3-dioxoisoindolin-4-yl)amino)-N-(4-(2-((4-(2-(3-methylbenzylidene)hydrazino)-6-morpholinopyrimidin-2-yl)oxy)ethyl)phenyl)hexanamide]",100 to 10000
4,"Cc1cccc(/C=N/Nc2cc(N3CCOCC3)nc(OCCc3ccc(NC(=O)CCCNc4ccc5c(c4)C(=O)N(C4CCC(=O)NC4=O)C5=O)cc3)n2)c1 (centres unmarked) [Example 16, (E)-4-((2-(2,6-dioxopiperidin-3-yl)-1,3-dioxoisoindolin-5-yl)amino)-N-(4-(2-((4-(2-(3-methylbenzylidene)hydrazino)-6-morpholinopyrimidin-2-yl)oxy)ethyl)phenyl) butanamide]",100 to 10000
5,"Cc1cccc(/C=N/Nc2cc(N3CCOCC3)nc(OCCc3ccc(NC(=O)CCCCCNc4ccc5c(c4)C(=O)N(C4CCC(=O)NC4=O)C5=O)cc3)n2)c1 (centres unmarked) [Example 17, (E)-6-((2-(2,6-dioxopiperidin-3-yl)-1,3-dioxoisoindolin-5-yl)amino)-N-(4-(2-((4-(2-(3-methylbenzylidene)hydrazino)-6-morpholinopyrimidin-2-yl)oxy)ethyl)phenyl) hexanamide]",100 to 10000
6,"Cc1cccc(/C=N/Nc2cc(N3CCOCC3)nc(OCCc3ccc(NC(=O)CCCCCCCNc4ccc5c(c4)C(=O)N(C4CCC(=O)NC4=O)C5=O)cc3)n2)c1 (centres unmarked) [Example 18, (E)-8-((2-(2,6-dioxopiperidin-3-yl)-1,3-dioxoisoindolin-5-yl)amino)-N-(4-(2-((4-(2-(3-methylbenzylidene)hydrazino)-6-morpholinopyrimidin-2-yl)oxy)ethyl)phenyl) octanamide]",100 to 10000
7,"Cc1cccc(/C=N/Nc2cc(N3CCOCC3)nc(OCCc3ccc(NC(=O)CCCCCCCCCNc4ccc5c(c4)C(=O)N(C4CCC(=O)NC4=O)C5=O)cc3)n2)c1 (centres unmarked) [Example 19, (E)-10-((2-(2,6-dioxopiperidin-3-yl)-1,3-dioxoisoindolin-5-yl)amino)-N-(4-(2-((4-(2-(3-methylbenzylidene)hydrazino)-6-morpholinopyrimidin-2-yl)oxy)ethyl)phenyl) decanamide]",100 to 10000
8,"Cc1cccc(/C=N/Nc2cc(N3CCOCC3)nc(OCCc3ccc(NC(=O)CCCCC(=O)Nc4ccc5c(c4)CN(C4CCC(=O)NC4=O)C5=O)cc3)n2)c1 (centres unmarked) [Example 25, (E)-N^1-(2-(2,6-dioxopiperidin-3-yl)-1-oxoisoindolin-5-yl)-N^6-(4-(2-((4-(2-(3-methylbenzylidene)hydrazino)-6-morpholinopyrimidin-2-yl)oxy)ethyl)phenyl)adipamide]",100 to 10000
9,"Cc1cccc(/C=N/Nc2cc(N3CCOCC3)nc(OCCc3ccc(NC(=O)CCC(=O)Nc4ccc5c(c4)C(=O)N(C4CCC(=O)NC4=O)C5)cc3)n2)c1 (centres unmarked) [Example 28, (E)-N^1-(2-(2,6-dioxopiperidin-3-yl)-3-oxoisoindolin-5-yl)-N^4-(4-(2-((4-(2-(3-methylbenzylidene)hydrazino)-6-morpholinopyrimidin-2-yl)oxy)ethyl)phenyl)succinimide]",1 to 100

# More lines, now with the values ahead:
row,DC50 [nM],SMILES
1,1 to 100,"Cc1cccc(/C=N/Nc2cc(N3CCOCC3)nc(OCCc3ccc(NC(=O)CCCCCCC(=O)Nc4cccc5c4CN(C4CCC(=O)NC4=O)C5=O)cc3)n2)c1 (centres unmarked) [Example 21, (E)-N^1-(2-(2,6-dioxopiperidin-3-yl)-1-oxoisoindolin-4-yl)-N^8-(4-(2-((4-(2-(3-methylbenzylidene)hydrazino)-6-morpholinopyrimidin-2-yl)oxy)ethyl)phenyl)octanediamide]"
2,100 to 10000,"Cc1cccc(/C=N/Nc2cc(N3CCOCC3)nc(OCCc3ccc(NC(=O)CCCCCCCCC(=O)Nc4cccc5c4CN(C4CCC(=O)NC4=O)C5=O)cc3)n2)c1 (centres unmarked) [Example 22, (E)-N^1-(2-(2,6-dioxopiperidin-3-yl)-1-oxoisoindolin-4-yl)-N^10-(4-(2-((4-(2-(3-methylbenzylidene)hydrazino)-6-morpholinopyrimidin-2-yl)oxy)ethyl)phenyl)decanediamide]"
3,100 to 10000,"Cc1cccc(/C=N/Nc2cc(N3CCOCC3)nc(OCCc3ccc(NC(=O)CCCCCCCCCCC(=O)Nc4cccc5c4CN(C4CCC(=O)NC4=O)C5=O)cc3)n2)c1 (centres unmarked) [Example 23, (E)-N^1-(2-(2,6-dioxopiperidin-3-yl)-1-oxoisoindolin-4-yl)-N^12-(4-(2-((4-(2-(3-methylbenzylidene)hydrazino)-6-morpholinopyrimidin-2-yl)oxy)ethyl)phenyl)dodecanediamide]"
4,100 to 10000,"Cc1cccc(/C=N/Nc2cc(N3CCOCC3)nc(OCCc3ccc(NC(=O)CCCCCCC(=O)Nc4ccc5c(c4)CN(C4CCC(=O)NC4=O)C5=O)cc3)n2)c1 (centres unmarked) [Example 26, (E)-N^1-(2-(2,6-dioxopiperidin-3-yl)-1-oxoisoindolin-5-yl)-N^8-(4-(2-((4-(2-(3-methylbenzylidene)hydrazino)-6-morpholinopyrimidin-2-yl)oxy)ethyl)phenyl)octanediamide]"
5,1 to 100,"Cc1cccc(/C=N/Nc2cc(N3CCOCC3)nc(OCCc3ccc(NC(=O)CCCCCCCCC(=O)Nc4ccc5c(c4)CN(C4CCC(=O)NC4=O)C5=O)cc3)n2)c1 (centres unmarked) [Example 27, (E)-N^1-(2-(2,6-dioxopiperidin-3-yl)-1-oxoisoindolin-5-yl)-N^10-(4-(2-((4-(2-(3-methylbenzylidene)hydrazino)-6-morpholinopyrimidin-2-yl)oxy)ethyl)phenyl)decanediamide]"
6,1 to 100,"Cc1cccc(/C=N/Nc2cc(N3CCOCC3)nc(OCCc3ccc(NC(=O)CCCCC(=O)Nc4ccc5c(c4)C(=O)N(C4CCC(=O)NC4=O)C5)cc3)n2)c1 (centres unmarked) [Example 29, (E)-N^1-(2-(2,6-dioxopiperidin-3-yl)-3-oxoisoindolin-5-yl)-N^6-(4-(2-((4-(2-(3-methylbenzylidene)hydrazino)-6-morpholinopyrimidin-2-yl)oxy)ethyl)phenyl)adipamide]"
7,1 to 100,"Cc1cccc(/C=N/Nc2cc(N3CCOCC3)nc(OCCc3ccc(NC(=O)CCCCCCC(=O)Nc4ccc5c(c4)C(=O)N(C4CCC(=O)NC4=O)C5)cc3)n2)c1 (centres unmarked) [Example 30, (E)-N^1-(2-(2,6-dioxopiperidin-3-yl)-3-oxoisoindol-5-yl)-N^8-(4-(2-((4-(2-(3-methylbenzylidene)hydrazino)-6-morpholinopyrimidin-2-yl)oxy)ethyl)phenyl)octanediamide]"
8,100 to 10000,"Cc1cccc(/C=N/Nc2cc(N3CCOCC3)nc(OCCc3ccc(NC(=O)CCCCCCCCC(=O)Nc4ccc5c(c4)C(=O)N(C4CCC(=O)NC4=O)C5)cc3)n2)c1 (centres unmarked) [Example 31, (E)-N^1-(2-(2,6-dioxopiperidin-3-yl)-3-oxoisoindol-5-yl)-N^10-(4-(2-((4-(2-(3-methylbenzylidene)hydrazino)-6-morpholinopyrimidin-2-yl)oxy)ethyl)phenyl)decanediamide]"
9,1 to 100,"Cc1cccc(/C=N/Nc2cc(N3CCOCC3)nc(OCCc3ccc(NC(=O)CCC(=O)Nc4cccc5c4C(=O)N(C4CCC(=O)NC4=O)C5)cc3)n2)c1 (centres unmarked) [Example 32, (E)-N^1-(2-(2,6-dioxopiperidin-3-yl)-3-oxoisoindolin-4-yl)-N^4-(4-(2-((4-(2-(3-methylbenzylidene)hydrazino)-6-morpholinopyrimidin-2-yl)oxy)ethyl)phenyl)succinimide]"
10,100 to 10000,"Cc1cccc(/C=N/Nc2cc(N3CCOCC3)nc(OCCc3ccc(NC(=O)CCCCCCCCC(=O)Nc4cccc5c4C(=O)N(C4CCC(=O)NC4=O)C5)cc3)n2)c1 (centres unmarked) [Example 35, (E)-N^1-(2-(2,6-dioxopiperidin-3-yl)-3-oxoisoindolin-4-yl)-N^10-(4-(2-((4-(2-(3-methylbenzylidene)hydrazino)-6-morpholinopyrimidin-2-yl)oxy)ethyl)phenyl)decanediamide]"
11,100 to 10000,"Cc1cccc(/C=N/Nc2cc(N3CCOCC3)nc(OCCc3ccc(NC(=O)CCCCCCCCCCC(=O)Nc4cccc5c4C(=O)N(C4CCC(=O)NC4=O)C5)cc3)n2)c1 (centres unmarked) [Example 36, (E)-N^1-(2-(2,6-dioxopiperidin-3-yl)-3-oxoisoindolin-4-yl)-N^12-(4-(2-((4-(2-(3-methylbenzylidene)hydrazino)-6-morpholinopyrimidin-2-yl)oxy)ethyl)phenyl)dodecanediamide]"
